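Dose response: 5 concentrations. Exposure: 48 h. Format: 96-well plates. Endpoint: linear interpolation; highest concentration if not reached. At the GI50, growth is halved.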 Calls of active or inactive are those of the source. No stated cut-off is given here; in the data, active = GI50 up to about 1.1 µM and inactive = higher.
What was measured:
Assay in all cases: NCI tumour cell line growth inhibition, 48 h
786-0 = test system: 786-0
A498 = test system: A498
A549 = test system: A549
ACHN = test system: ACHN
CAKI-1 = test system: CAKI-1
COLO 205 = test system: COLO 205
DLD-1 = test system: DLD-1
DMS-114 = test system: DMS-114
DMS-273 = test system: DMS-273
EKVX = test system: EKVX
HCC 2998 = test system: HCC 2998
HCT-116 = test system: HCT-116
HCT-15 = test system: HCT-15
HL-60 = test system: HL-60
HOP-18 = test system: HOP-18
HOP-62 = test system: HOP-62
HOP-92 = test system: HOP-92
HT-29 = test system: HT-29
IGROV-1 = test system: IGROV-1
K562 = test system: K562
KM-20L2 = test system: KM-20L2
KM12 = test system: KM12
LOX IMVI = test system: LOX IMVI
LXFL 529 = test system: LXFL 529
M14 = test system: M14
M19-MEL = test system: M19-MEL
MOLT-4 = test system: MOLT-4
Malme-3M = test system: Malme-3M
NCI-H226 = test system: NCI-H226
NCI-H23 = test system: NCI-H23
NCI-H460 = test system: NCI-H460
NCI-H522 = test system: NCI-H522
OVCAR-3 = test system: OVCAR-3
OVCAR-4 = test system: OVCAR-4
OVCAR-5 = test system: OVCAR-5
OVCAR-8 = test system: OVCAR-8
RPMI-8226 = test system: RPMI-8226
RXF 631 = test system: RXF 631
SF-268 = test system: SF-268
SF-295 = test system: SF-295
SF-539 = test system: SF-539
SK-MEL-28 = test system: SK-MEL-28
SK-MEL-2 = test system: SK-MEL-2
SK-MEL-5 = test system: SK-MEL-5
SK-OV-3 = test system: SK-OV-3
SN12C = test system: SN12C
SNB-19 = test system: SNB-19
SNB-75 = test system: SNB-75
SNB-78 = test system: SNB-78
SW-620 = test system: SW-620
TK-10 = test system: TK-10
U-251 = test system: U-251
UACC-257 = test system: UACC-257
UACC-62 = test system: UACC-62
UO-31 = test system: UO-31
CCRF-CEM = test system: CCRF-CEM
RXF 393 = test system: RXF 393
SR = test system: SR
XF498 = test system: XF498

Cc1cccc(C)c1N1C(=O)C(=O)C(c2nc3ccccc3s2)/C(=N\N)C1=O (stereo not drawn)
GI50 (786-0): > 100 µM (inactive)
GI50 (A498): > 100 µM (inactive)
GI50 (A549): > 100 µM (inactive)
GI50 (ACHN): 62.1 µM (inactive)
GI50 (CAKI-1): > 100 µM (inactive)
GI50 (COLO 205): > 100 µM (inactive)
GI50 (DLD-1): > 100 µM (inactive)
GI50 (DMS-114): 60.8 µM (inactive)
GI50 (DMS-273): > 100 µM (inactive)
GI50 (EKVX): 47 µM (inactive)
GI50 (HCC 2998): > 100 µM (inactive)
GI50 (HCT-116): > 100 µM (inactive)
GI50 (HCT-15): > 100 µM
GI50 (HL-60): 36.3 µM (inactive)
GI50 (HOP-18): 49.7 µM (inactive)
GI50 (HOP-62): > 100 µM (inactive)
GI50 (HOP-92): > 100 µM (inactive)
GI50 (HT-29): > 100 µM (inactive)
GI50 (IGROV-1): > 100 µM (inactive)
GI50 (K562): 31.8 µM (inactive)
GI50 (KM-20L2): > 100 µM (inactive)
GI50 (KM12): 52 µM (inactive)
GI50 (LOX IMVI): > 100 µM (inactive)
GI50 (LXFL 529): 40.8 µM (inactive)
GI50 (M14): > 100 µM (inactive)
GI50 (M19-MEL): > 100 µM (inactive)
GI50 (MOLT-4): 30.3 µM (inactive)
GI50 (Malme-3M): > 100 µM (inactive)
GI50 (NCI-H226): > 100 µM (inactive)
GI50 (NCI-H23): > 100 µM (inactive)
GI50 (NCI-H460): > 100 µM (inactive)
GI50 (NCI-H522): 39.4 µM (inactive)
GI50 (OVCAR-3): > 100 µM (inactive)
GI50 (OVCAR-4): > 100 µM (inactive)
GI50 (OVCAR-5): > 100 µM (inactive)
GI50 (OVCAR-8): > 100 µM (inactive)
GI50 (RPMI-8226): 39.9 µM (inactive)
GI50 (RXF 631): > 100 µM (inactive)
GI50 (SF-268): > 100 µM (inactive)
GI50 (SF-295): > 100 µM (inactive)
GI50 (SF-539): > 100 µM (inactive)
GI50 (SK-MEL-28): > 100 µM (inactive)
GI50 (SK-MEL-2): > 100 µM (inactive)
GI50 (SK-MEL-5): > 100 µM (inactive)
GI50 (SK-OV-3): > 100 µM (inactive)
GI50 (SN12C): 78.7 µM (inactive)
GI50 (SNB-19): > 100 µM (inactive)
GI50 (SNB-75): > 100 µM (inactive)
GI50 (SNB-78): > 100 µM (inactive)
GI50 (SW-620): > 100 µM (inactive)
GI50 (TK-10): > 100 µM (inactive)
GI50 (U-251): > 100 µM (inactive)
GI50 (UACC-257): > 100 µM (inactive)
GI50 (UACC-62): 77.4 µM (inactive)
GI50 (UO-31): > 100 µM (inactive)

COc1ccc(N2C(=O)C3c4[nH]c5ccc(OC)cc5c4C4CCC(C(C)(C)C)CC4C3C2=O)cc1 (stereo not drawn)
GI50 (786-0): 16.8 µM (inactive)
GI50 (A498): 19.6 µM (inactive)
GI50 (A549): 26.7 µM (inactive)
GI50 (ACHN): 28.5 µM (inactive)
GI50 (CAKI-1): 42.6 µM (inactive)
GI50 (CCRF-CEM): 58.6 µM (inactive)
GI50 (COLO 205): 12.3 µM (inactive)
GI50 (DLD-1): 64.7 µM (inactive)
GI50 (DMS-114): 34.4 µM (inactive)
GI50 (DMS-273): 10.2 µM (inactive)
GI50 (EKVX): 24.7 µM (inactive)
GI50 (HCC 2998): 45.3 µM (inactive)
GI50 (HCT-116): 10.5 µM (inactive)
GI50 (HCT-15): > 100 µM
GI50 (HL-60): 43 µM (inactive)
GI50 (HOP-18): 44.1 µM (inactive)
GI50 (HOP-62): 16 µM (inactive)
GI50 (HOP-92): 10.7 µM (inactive)
GI50 (HT-29): 32.5 µM (inactive)
GI50 (IGROV-1): 51.2 µM (inactive)
GI50 (K562): 23.1 µM (inactive)
GI50 (KM-20L2): 86.9 µM (inactive)
GI50 (KM12): 34.3 µM (inactive)
GI50 (LOX IMVI): 34.2 µM (inactive)
GI50 (LXFL 529): 17.6 µM (inactive)
GI50 (M14): 19.9 µM (inactive)
GI50 (M19-MEL): 48.5 µM (inactive)
GI50 (MOLT-4): 28.6 µM (inactive)
GI50 (Malme-3M): 7.03 µM (inactive)
GI50 (NCI-H226): 30.5 µM (inactive)
GI50 (NCI-H23): 19.1 µM (inactive)
GI50 (NCI-H460): 16.6 µM (inactive)
GI50 (NCI-H522): 20.7 µM (inactive)
GI50 (OVCAR-3): 92.3 µM (inactive)
GI50 (OVCAR-4): 4.71 µM (inactive)
GI50 (OVCAR-5): > 100 µM (inactive)
GI50 (OVCAR-8): 25 µM (inactive)
GI50 (RPMI-8226): 57.1 µM (inactive)
GI50 (RXF 393): 16.1 µM (inactive)
GI50 (SF-268): 14.3 µM (inactive)
GI50 (SF-295): 9.51 µM (inactive)
GI50 (SF-539): 12.8 µM (inactive)
GI50 (SK-MEL-28): 23.2 µM (inactive)
GI50 (SK-MEL-2): 17.5 µM (inactive)
GI50 (SK-MEL-5): 21.1 µM (inactive)
GI50 (SK-OV-3): 15.2 µM (inactive)
GI50 (SN12C): 38.2 µM (inactive)
GI50 (SNB-19): 46.3 µM (inactive)
GI50 (SNB-75): 12.3 µM (inactive)
GI50 (SNB-78): 3.86 µM (inactive)
GI50 (SR): 17.4 µM (inactive)
GI50 (SW-620): 93.5 µM (inactive)
GI50 (TK-10): 33.3 µM (inactive)
GI50 (U-251): 17.5 µM (inactive)
GI50 (UACC-257): 55.2 µM (inactive)
GI50 (UACC-62): 27.2 µM (inactive)
GI50 (UO-31): > 100 µM (inactive)
GI50 (XF498): 56.2 µM (inactive)

— ChEMBL document CHEMBL1201862, “PubChem BioAssay data set” (2004)
